PMC10683025, “Discovery of a Hydroxylamine-Based Brain-Penetrant EGFR Inhibitor for Metastatic Non-Small-Cell Lung Cancer” (Journal of Medicinal Chemistry, 2023)
≈ marks a conversion by molar mass, not a printed value. Like-named read-outs stand apart in the source and are kept apart here.

Key:
[1] = target: T1, EGFRwt (Homo sapiens, UniProt P00533); experiment: KINOMEScan KdELECT Kd determination; type: binding; settings: wt; read-out: EGFR Kd
T1 construct: purchased Eurofins DiscoverX (contract assay)
Experimental: (§3) In vitro kinase activity (inhibitor binding constants (Kd) and biochemical inhibition (IC50’s)) were assessed by Eurofins DiscoverX (Kd determinations) and Eurofins Cerep (biochemical IC50 determinations).

[2] = target: T2, EGFR del E746_A750 (Homo sapiens, UniProt P00533, DEL746-750); experiment: KINOMEScan KdELECT Kd determination; type: binding
T2 construct: purchased Eurofins DiscoverX (contract assay)
Experimental: as §3

[3] = test system: HCC827 (EGFR mutation = exon19del); experiment: CellTiter-Glo cell viability assay; type: cell-based, human; settings: Homo sapiens, HCC827; 72 h, unadjusted for FBS
Experimental: (§4) The NCI-H3255 cell line was obtained from CoBioer. […] NCI-H3255 cells were cultured in BEGM (Lonza) with 10% FBS. […] All cells were cultured in a humidified incubator with 5% CO2 at 37 °C.
(§5) Viability assays using A431, HCC827, NCI-H1975, NCI-H3255, Ba/F3 EGFR-del E746_A750/C797S, Ba/F3 EGFR-L858R/C797S, AU565, SK-BR-3, and ZR-75-30 cells were performed at Crown BioScience.

[4] = test system: NCI-H3255 (EGFR mutation = L858R); experiment: CellTiter-Glo cell viability assay; type: cell-based, human; settings: NCI-H3255; for IC50: Homo sapiens, 72 h, unadjusted for FBS
Experimental: as §4, §5

[5] = Solubility assay; type: physicochemical; settings: buffer; for solubility kinetic at 2 h: pH 7.4, aqueous buffer, read-out: Aq. Sol.; for solubility at 2 h: read-out: Aq. Solubility
Experimental: Solubility was determined by Pharmaron, Inc. and each compound was assessed in duplicate (n = 2) by adding 15 μL of compound stock solution (10 mM in DMSO) into a 96-well plate along with 485 μL of buffer followed by shaking at 25 °C, 1100 rpm for 2 h. Wells were filtered, and samples (5 μL) were taken followed by dilution with an equal volume of DMSO (5 μL) and 490 μL of aqueous solution. Samples were analyzed by LC-MS/MS.

[6] = Metabolic stability in liver microsomes; type: in vitro ADME, human; settings: for Remaining Percentage: human LM; for half-life at 1 h, 1 µM / microsomal CLint at 1 h, 1 µM: human, liver microsomes; for half-life at 1 h, 1 µM: read-out: LM t1/2; for microsomal CLint at 1 h, 1 µM: read-out: LMClint
Experimental: (§6) Microsome stability was assessed in duplicate (n = 2) in the presence and absence of nicotinamide adenine dinucleotide phosphate (NADPH) with liver microsomes (0.5 mg/mL) from human (BD Gentest) and Sprague-Dawley rats (BD Gentest). Compounds were incubated in liver microsomes at 1 μM and samples (30 μL) were taken at 0.5, 15, 30, 45, and 60 min time points for analysis by LC-MS/MS. Hepatocyte stability was assessed in duplicate (n = 2) at a working cell density of 0.5 × 10^6 cells/mL with hepatocytes from human (BiolVT), Sprague-Dawley rat (BiolVT), cynomolgus monkey (RILD) or beagle dog (BiolVT). […] The in vitro half-life and intrinsic clearances were determined as previously described.[76]
(§7) In vitro half-life (in vitro t1/2) was determined from the slope value in [drawing 1] where k was determined by linear regression of the natural logarithm of the remaining percentage of the parent drug vs the incubation time curve.

[7] = Metabolic stability in liver microsomes; type: in vitro ADME, Sprague-Dawley rat; settings: for half-life at 1 h, 1 µM / microsomal CLint at 1 h, 1 µM: Sprague-Dawley, rat, liver microsomes; for half-life at 1 h, 1 µM: read-out: LM t1/2; for microsomal CLint at 1 h, 1 µM: read-out: LMClint; for Remaining Percentage: rat LM
Experimental: as §6, §7

[8] = Metabolic stability in hepatocytes; type: in vitro ADME, Sprague-Dawley rat; settings: for hepatocyte CLint at 2 h, 1 µM / half-life at 2 h, 1 µM: Sprague-Dawley, rat, hepatocytes; for half-life at 2 h, 1 µM: read-out: HEP t1/2; for Remaining Percentages: rat hepatocytes
Experimental: as §6, §7

[9] = Plasma stability; type: in vitro ADME, human; settings: for Remaining Percentages / t1/2: human plasma; for t1/2: ∞ = no degradation
Experimental: (§1) Assessment of compounds to determine stability in incubations containing plasma of human (Pharmaron) and Sprague-Dawley rat (IPHASE) was performed by Pharmaron, Inc. using the compound […] approach. Compounds were assessed in duplicate (n = 2) and incubated in plasma at 5 μM and samples (50 μL) were taken at 0, 15, 30, 60, and 120 min time points for analysis by LC-MS/MS. Peak area ratios were determined from the extracted ion chromatogram and the percent compound remaining at each time point was calculated by the following equation: [drawing 2] where peak area ratiot min is the peak area ratio of control and test compound at t min and peak area ratio0 min is the peak area ratio of control and test compound at zero time point.

[10] = Plasma stability; type: in vitro ADME, Sprague-Dawley rat; settings: for Remaining Percentages / t1/2: rat plasma; for t1/2: ∞ = no degradation
Experimental: as §1

[11] = MDCKII-MDR1 permeability; type: in vitro ADME, canine; settings: dog, MDCK-MDR1, MDCKII-MDR1
Experimental: (§8) A 96-well HTS Transwell plate (Corning) was used for Caco-2 and MDCKII-MDR1 cell seeding. […] Plates were incubated at 37 °C for 2 h, and samples (50 μL) were taken at the beginning and end of the incubation in both the donor and acceptor wells with the assay run in duplicate (n = 2). Samples were analyzed by LC-MS/MS.
(§9) The efflux ratio was determined by using the following equation: [drawing 4] where Papp (B–A) indicates the apparent permeability in the basolateral to apical direction and Papp (A–B) indicates the apparent permeability in the apical to basolateral direction.

[12] = test system: MDR1; experiment: MDCKII-MDR1 permeability; type: in vitro ADME, canine; settings: dog, MDCK-MDR1
Experimental: as §8, §9

[13] = Plasma protein binding by equilibrium dialysis; type: in vitro ADME, mouse
Experimental: (§2) Plasma protein binding and brain tissue binding were determined by Pharmaron, Inc. using the equilibrium dialysis method. […] Following incubation, the samples were analyzed by LC-MS/MS and the concentrations of the compounds were determined in the buffer and plasma solution chambers.

[14] = Brain tissue binding by equilibrium dialysis; type: in vitro ADME; settings: rat; for recovery at 6 h, 5 μM: Sprague-Dawley (SD); for fraction unbound at 6 h, 5 μM / remaining at 6 h, 5 μM: Sprague-Dawley
Experimental: as §2

[15] = target: T3, hERG (Homo sapiens, UniProt Q12809); experiment: hERG manual patch clamp in HEK293; type: cell-based; settings: for IC50: human, HEK293 cells stably transfected with hERG, HEK 293 (+hERG), manual patch clamp
T3 construct: host or cells: HEK293

[16] = target: T4, EGFRL858R (Homo sapiens, UniProt P00533, L858R); experiment: KINOMEScan KdELECT Kd determination; type: binding; set-up: purchased Eurofins DiscoverX (contract assay); settings: L858R
Experimental: as §3

[17] = target: T4, EGFRL858R; experiment: KinaseProfiler enzymatic radiometric assay; type: biochemical; set-up: purchased Eurofins Cerep (KinaseProfiler, contract assay); settings: ATP 10 μM, read-out: EGFR IC50
Experimental: as §3

[18] = target: T5, YANK1 (Homo sapiens, UniProt Q8WU08); experiment: KINOMEScan; type: binding; settings: YANK1, 1 µM; read-out: Percent Control
T5 construct: purchased Eurofins DiscoverX (KINOMEScan service)
Source text: Percent control was mapped onto the kinome tree using TREEspot.

[19] = CD-1, mouse, mouse plasma, read-out: %Bound (converted)
[20] = CD-1, plasma, mouse, 5 μM, read-out: fu,plasma% / %Unbound
[21] = brain homogenate, read-out: fu,brain% / %Unboundbrain
[22] = rat brain homogenate, read-out: %Boundbrain (converted)

T3 sequence (Q12809 whole entry): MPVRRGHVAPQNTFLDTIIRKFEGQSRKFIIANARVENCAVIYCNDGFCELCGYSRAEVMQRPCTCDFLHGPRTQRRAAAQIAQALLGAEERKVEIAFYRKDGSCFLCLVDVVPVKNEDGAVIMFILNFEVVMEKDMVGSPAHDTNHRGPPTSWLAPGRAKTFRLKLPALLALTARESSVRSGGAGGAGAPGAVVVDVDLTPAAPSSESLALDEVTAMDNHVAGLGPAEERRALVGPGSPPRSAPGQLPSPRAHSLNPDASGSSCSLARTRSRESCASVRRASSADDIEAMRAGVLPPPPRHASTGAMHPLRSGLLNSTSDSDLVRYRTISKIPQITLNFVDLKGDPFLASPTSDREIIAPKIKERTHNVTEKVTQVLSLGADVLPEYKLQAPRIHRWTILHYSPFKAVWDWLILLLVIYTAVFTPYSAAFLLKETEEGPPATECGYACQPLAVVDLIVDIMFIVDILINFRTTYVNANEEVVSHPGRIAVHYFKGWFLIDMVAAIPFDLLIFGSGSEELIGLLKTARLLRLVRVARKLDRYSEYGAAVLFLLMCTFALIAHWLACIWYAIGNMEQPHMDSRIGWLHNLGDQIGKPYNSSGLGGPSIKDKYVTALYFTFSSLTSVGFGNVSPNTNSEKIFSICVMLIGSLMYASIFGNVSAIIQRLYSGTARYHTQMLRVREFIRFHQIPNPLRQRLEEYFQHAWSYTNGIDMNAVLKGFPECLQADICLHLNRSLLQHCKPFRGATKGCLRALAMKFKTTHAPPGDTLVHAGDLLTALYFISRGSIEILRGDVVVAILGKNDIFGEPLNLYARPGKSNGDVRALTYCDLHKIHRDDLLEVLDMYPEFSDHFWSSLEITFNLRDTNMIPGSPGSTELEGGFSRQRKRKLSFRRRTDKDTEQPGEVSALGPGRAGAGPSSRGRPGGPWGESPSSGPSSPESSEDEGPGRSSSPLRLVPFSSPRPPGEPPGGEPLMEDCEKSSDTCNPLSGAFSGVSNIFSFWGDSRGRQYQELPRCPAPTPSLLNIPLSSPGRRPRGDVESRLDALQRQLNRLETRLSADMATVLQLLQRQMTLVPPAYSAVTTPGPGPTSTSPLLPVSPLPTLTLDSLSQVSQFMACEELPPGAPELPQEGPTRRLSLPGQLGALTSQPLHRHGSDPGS
T4 sequence (P00533 25-1210 L858R): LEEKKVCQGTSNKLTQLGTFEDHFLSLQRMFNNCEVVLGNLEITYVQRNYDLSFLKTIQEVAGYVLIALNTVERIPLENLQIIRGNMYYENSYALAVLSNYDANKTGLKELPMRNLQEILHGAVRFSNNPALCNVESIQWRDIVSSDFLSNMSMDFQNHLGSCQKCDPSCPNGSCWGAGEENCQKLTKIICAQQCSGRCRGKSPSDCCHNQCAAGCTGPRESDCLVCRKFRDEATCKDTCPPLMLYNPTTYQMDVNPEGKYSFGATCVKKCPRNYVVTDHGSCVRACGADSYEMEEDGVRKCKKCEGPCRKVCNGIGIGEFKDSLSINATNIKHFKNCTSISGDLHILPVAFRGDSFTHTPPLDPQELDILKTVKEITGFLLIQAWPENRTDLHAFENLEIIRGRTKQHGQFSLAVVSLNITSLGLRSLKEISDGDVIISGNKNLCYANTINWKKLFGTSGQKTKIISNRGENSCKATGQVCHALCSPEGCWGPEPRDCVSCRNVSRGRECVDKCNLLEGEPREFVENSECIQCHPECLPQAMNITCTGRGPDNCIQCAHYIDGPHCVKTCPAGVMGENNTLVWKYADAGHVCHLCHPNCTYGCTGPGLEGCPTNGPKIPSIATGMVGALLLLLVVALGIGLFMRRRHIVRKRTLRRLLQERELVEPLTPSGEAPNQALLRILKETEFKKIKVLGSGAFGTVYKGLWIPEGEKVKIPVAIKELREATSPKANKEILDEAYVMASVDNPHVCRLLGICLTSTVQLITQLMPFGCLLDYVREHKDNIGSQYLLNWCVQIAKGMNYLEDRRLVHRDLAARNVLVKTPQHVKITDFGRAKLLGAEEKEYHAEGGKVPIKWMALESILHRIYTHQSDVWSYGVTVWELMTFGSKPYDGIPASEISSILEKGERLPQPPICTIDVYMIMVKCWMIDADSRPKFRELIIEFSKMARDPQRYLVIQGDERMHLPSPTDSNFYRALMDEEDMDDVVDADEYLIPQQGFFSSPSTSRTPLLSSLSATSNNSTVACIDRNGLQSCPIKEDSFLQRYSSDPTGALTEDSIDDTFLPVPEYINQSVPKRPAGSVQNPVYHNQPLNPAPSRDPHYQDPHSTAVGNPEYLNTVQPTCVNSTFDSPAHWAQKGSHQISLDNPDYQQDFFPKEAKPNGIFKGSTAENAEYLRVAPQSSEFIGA
T2 sequence (P00533 with tags, fused parts or gaps DEL746-750): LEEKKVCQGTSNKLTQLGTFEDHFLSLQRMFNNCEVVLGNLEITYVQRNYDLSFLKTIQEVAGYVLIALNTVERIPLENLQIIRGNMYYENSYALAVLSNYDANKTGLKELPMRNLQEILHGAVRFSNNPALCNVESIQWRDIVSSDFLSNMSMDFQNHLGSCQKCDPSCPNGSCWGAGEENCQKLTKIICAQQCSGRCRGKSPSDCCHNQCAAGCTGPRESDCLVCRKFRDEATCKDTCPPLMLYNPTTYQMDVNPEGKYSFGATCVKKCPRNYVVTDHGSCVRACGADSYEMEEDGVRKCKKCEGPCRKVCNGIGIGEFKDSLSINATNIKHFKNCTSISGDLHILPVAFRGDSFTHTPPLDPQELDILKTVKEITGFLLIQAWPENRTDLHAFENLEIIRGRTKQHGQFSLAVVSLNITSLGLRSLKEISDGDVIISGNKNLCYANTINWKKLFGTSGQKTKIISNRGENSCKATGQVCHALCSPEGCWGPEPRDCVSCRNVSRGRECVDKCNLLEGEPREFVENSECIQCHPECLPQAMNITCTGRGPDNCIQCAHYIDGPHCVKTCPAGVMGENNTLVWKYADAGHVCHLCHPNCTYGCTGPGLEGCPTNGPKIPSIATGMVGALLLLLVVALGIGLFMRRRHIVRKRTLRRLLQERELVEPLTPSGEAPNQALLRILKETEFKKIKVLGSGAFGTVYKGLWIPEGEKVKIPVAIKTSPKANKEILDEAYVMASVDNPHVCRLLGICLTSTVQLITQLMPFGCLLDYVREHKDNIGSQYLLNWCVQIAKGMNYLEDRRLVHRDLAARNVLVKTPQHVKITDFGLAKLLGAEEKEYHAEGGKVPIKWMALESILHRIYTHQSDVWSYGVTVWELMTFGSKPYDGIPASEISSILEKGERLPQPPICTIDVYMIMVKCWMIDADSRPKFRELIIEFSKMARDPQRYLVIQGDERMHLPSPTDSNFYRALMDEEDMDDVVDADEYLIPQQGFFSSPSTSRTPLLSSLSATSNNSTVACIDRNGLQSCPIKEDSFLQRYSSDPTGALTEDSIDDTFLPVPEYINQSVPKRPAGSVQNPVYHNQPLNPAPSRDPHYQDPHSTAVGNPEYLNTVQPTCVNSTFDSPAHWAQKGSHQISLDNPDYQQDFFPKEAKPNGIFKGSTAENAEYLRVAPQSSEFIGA
T1 sequence (P00533 25-1210): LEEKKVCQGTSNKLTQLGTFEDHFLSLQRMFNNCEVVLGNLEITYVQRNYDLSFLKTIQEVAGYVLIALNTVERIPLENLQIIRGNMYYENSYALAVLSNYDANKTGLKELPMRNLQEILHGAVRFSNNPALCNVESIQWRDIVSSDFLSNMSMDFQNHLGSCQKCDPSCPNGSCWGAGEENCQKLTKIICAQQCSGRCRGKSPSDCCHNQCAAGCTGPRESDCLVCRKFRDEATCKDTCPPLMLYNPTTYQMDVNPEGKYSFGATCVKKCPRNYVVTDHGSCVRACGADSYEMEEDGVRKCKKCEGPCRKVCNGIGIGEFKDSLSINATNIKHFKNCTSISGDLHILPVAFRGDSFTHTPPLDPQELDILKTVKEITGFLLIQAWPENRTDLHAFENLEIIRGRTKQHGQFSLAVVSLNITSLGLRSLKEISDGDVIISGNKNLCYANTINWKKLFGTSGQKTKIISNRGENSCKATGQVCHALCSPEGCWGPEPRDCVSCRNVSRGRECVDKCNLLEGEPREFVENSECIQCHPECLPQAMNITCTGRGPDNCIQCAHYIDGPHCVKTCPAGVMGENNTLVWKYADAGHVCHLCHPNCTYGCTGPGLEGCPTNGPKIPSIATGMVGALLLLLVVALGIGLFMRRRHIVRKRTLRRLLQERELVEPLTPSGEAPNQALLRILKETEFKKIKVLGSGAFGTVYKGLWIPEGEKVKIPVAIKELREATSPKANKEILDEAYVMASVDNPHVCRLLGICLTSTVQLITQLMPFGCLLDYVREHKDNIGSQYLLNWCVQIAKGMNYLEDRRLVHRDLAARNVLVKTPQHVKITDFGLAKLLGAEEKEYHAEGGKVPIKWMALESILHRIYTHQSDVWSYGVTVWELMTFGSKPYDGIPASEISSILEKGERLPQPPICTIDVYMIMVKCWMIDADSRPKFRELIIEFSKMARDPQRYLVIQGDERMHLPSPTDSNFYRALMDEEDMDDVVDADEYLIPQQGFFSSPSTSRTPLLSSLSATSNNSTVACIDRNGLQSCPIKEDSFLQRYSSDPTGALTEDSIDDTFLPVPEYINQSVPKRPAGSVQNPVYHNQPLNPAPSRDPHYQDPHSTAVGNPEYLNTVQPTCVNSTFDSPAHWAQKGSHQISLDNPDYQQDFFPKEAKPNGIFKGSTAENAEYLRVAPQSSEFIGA
T5 sequence (Q8WU08 whole entry): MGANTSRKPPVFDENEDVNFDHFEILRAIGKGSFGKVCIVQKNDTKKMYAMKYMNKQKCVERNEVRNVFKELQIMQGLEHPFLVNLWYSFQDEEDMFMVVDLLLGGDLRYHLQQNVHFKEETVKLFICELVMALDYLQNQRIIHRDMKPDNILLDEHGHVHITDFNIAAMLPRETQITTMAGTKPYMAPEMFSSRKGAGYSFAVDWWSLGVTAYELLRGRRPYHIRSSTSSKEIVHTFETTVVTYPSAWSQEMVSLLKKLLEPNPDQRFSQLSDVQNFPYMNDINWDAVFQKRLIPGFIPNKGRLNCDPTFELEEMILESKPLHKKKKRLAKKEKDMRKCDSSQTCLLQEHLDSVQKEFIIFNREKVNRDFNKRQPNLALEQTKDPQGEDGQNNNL

For COc1cc2ncnc(Nc3cccc(Cl)c3F)c2cc1OCCON1CCOCC1 [Compound 7, N-(3-Chloro-2-fluorophenyl)-7-methoxy-6-(2-(morpholinooxy)ethoxy)quinazolin-4-amine], the Kd [1] was < 0.2 nM, the Kd [2] was < 0.2 nM and the IC50 [3] was 0.31 nM. For the same molecule, the IC50 [4] was 17 nM, the solubility kinetic at 2 h [5] was 36 µM (≈ 16.2 µg/mL) and the “Remaining Percentage” value ([6]; +Cofactors, 15 min) was 43.79%. The “Remaining Percentage” value ([6]; +Cofactors, 30 min) was 21.93%, the “Remaining Percentage” value ([6]; +Cofactors, 45 min) was 10.84% and the “Remaining Percentage” value ([6]; +Cofactors, 60 min) was 7.20%. The “Remaining Percentage” value ([6]; -Cofactors, 60 min) was 87.34%, the half-life at 1 h, 1 µM [6] was 14 min and the microsomal CLint at 1 h, 1 µM [6] was 99 µL/min/mg. The half-life at 1 h, 1 µM [7] was 10 min, the microsomal CLint at 1 h, 1 µM [7] was 138 µL/min/mg and the “Remaining Percentage” value ([7]; +Cofactors, 15 min) was 28.79%. The “Remaining Percentage” value ([7]; +Cofactors, 30 min) was 12.97%, the “Remaining Percentage” value ([7]; +Cofactors, 45 min) was 8.49% and the “Remaining Percentage” value ([7]; +Cofactors, 60 min) was 5.84%. For the same molecule, the “Remaining Percentage” value ([7]; -Cofactors, 60 min) was 118.60%, the hepatocyte CLint at 2 h, 1 µM [8] was 126 µL/min/1e6 cells and the half-life at 2 h, 1 µM [8] was 11 min. The “Remaining Percentages” value ([8]; 15 min) was 38.18%, the “Remaining Percentages” value ([8]; 30 min) was 15.61% and the “Remaining Percentages” value ([8]; 60 min) was 2.48%. For the same molecule, the “Remaining Percentages” value ([8]; 90 min) was 0.92%, the “Remaining Percentages” value ([8]; 120 min) was 0.74% and the “Remaining Percentages” value ([9]; 15 min) was 100.68%. For the same molecule, the “Remaining Percentages” value ([9]; 30 min) was 93.61%, the “Remaining Percentages” value ([9]; 60 min) was 100.91% and the “Remaining Percentages” value ([9]; 120 min) was 97.91%. The t1/2 [9] was “∞”, the “Remaining Percentages” value ([10]; 15 min) was 91.34% and the “Remaining Percentages” value ([10]; 30 min) was 93.84%. For the same molecule, the “Remaining Percentages” value ([10]; 60 min) was 93.29%, the “Remaining Percentages” value ([10]; 120 min) was 95.67% and the t1/2 [10] was “∞”. For the same molecule, the recovery at 2 h, 1 μM ([11]; read-out: Recovery% (AP-BL)) was 73.5%, the recovery at 2 h, 1 μM ([11]; read-out: Recovery% (BL-AP)) was 76.4% and the efflux ratio at 2 h, 1 µM [12] was 1.1. It also gave an efflux ratio at 2 h, 1 μM [12] of 1.06, a Papp A→B at 2 h, 1 µM [12] of 12.6 ×10⁻⁶ cm/s and a Papp A→B at 2 h, 1 μM [12] of 12.6 ×10⁻⁶ cm/s. For the same molecule, the Papp B→A at 2 h, 1 µM [12] was 13.3 ×10⁻⁶ cm/s, the Papp B→A at 2 h, 1 μM [12] was 13.3 ×10⁻⁶ cm/s and the recovery at 6 h, 5 μM ([13]; CD-1, mouse, mouse plasma) was 98.4%. It also gave a remaining at 6 h, 5 μM ([13]; CD-1, mouse, mouse plasma) of 102%, a fraction unbound at 6 h, 5 μM [13, 19] of 0.0665 and a fraction unbound at 6 h, 5 μM [13, 20] of 0.0665. For the same molecule, the recovery at 6 h, 5 μM ([14]; rat brain homogenate) was 94.7%, the fraction unbound at 6 h, 5 μM [14, 21] was 0.0478 and the remaining at 6 h, 5 μM ([14]; rat brain homogenate) was 98.3%. For the same molecule, the fraction unbound at 6 h, 5 μM [14, 22] was 0.0478, the IC50 [15] was 8480 ± 3500 nM and the Kd [16] was < 0.2 nM. The IC50 [17] was 1 nM.

For COc1cc2ncnc(Nc3cccc(Cl)c3F)c2cc1OCCON1CCN(C)CC1 [Compound 9, N-(3-Chloro-2-fluorophenyl)-7-methoxy-6-(2-((4-methylpiperazin-1-yl)oxy)ethoxy)quinazolin-4-amine], the Kd [1] was < 0.2 nM, the Kd [2] was < 0.2 nM and the IC50 [3] was 3.1 nM. For the same molecule, the IC50 [4] was 7.2 nM, the “improvement of IC50 over 6” value [4] was “roughly 12 fold” and the solubility at 2 h ([5]; pH 1.2) was > 300 µM. The solubility at 2 h ([5]; pH 6.8) was 262 µM (≈ 121 µg/mL), the solubility kinetic at 2 h [5] was 199 µM (≈ 91.9 µg/mL) and the “Remaining Percentage” value ([6]; +Cofactors, 15 min) was 69.65%. The “Remaining Percentage” value ([6]; +Cofactors, 30 min) was 46.26%, the “Remaining Percentage” value ([6]; +Cofactors, 45 min) was 31.49% and the “Remaining Percentage” value ([6]; +Cofactors, 60 min) was 26.65%. The “Remaining Percentage” value ([6]; -Cofactors, 60 min) was 109.86%, the half-life at 1 h, 1 µM [6] was 30 min and the microsomal CLint at 1 h, 1 µM [6] was 46 µL/min/mg. The half-life at 1 h, 1 µM [7] was 9.5 min, the microsomal CLint at 1 h, 1 µM [7] was 146 µL/min/mg and the “Remaining Percentage” value ([7]; +Cofactors, 15 min) was 34.07%. For the same molecule, the “Remaining Percentage” value ([7]; +Cofactors, 30 min) was 11.66%, the “Remaining Percentage” value ([7]; +Cofactors, 45 min) was 6.01% and the “Remaining Percentage” value ([7]; +Cofactors, 60 min) was 2.50%. The “Remaining Percentage” value ([7]; -Cofactors, 60 min) was 113.38%, the hepatocyte CLint at 2 h, 1 µM [8] was 70 µL/min/1e6 cells and the half-life at 2 h, 1 µM [8] was 19.7 min. The “Remaining Percentages” value ([8]; 15 min) was 47.58%, the “Remaining Percentages” value ([8]; 30 min) was 28.51% and the “Remaining Percentages” value ([8]; 60 min) was 11.71%. For the same molecule, the “Remaining Percentages” value ([8]; 90 min) was 4.98%, the “Remaining Percentages” value ([8]; 120 min) was 2.53% and the “Remaining Percentages” value ([9]; 15 min) was 93.43%. For the same molecule, the “Remaining Percentages” value ([9]; 30 min) was 92.26%, the “Remaining Percentages” value ([9]; 60 min) was 97.47% and the “Remaining Percentages” value ([9]; 120 min) was 92.38%. The t1/2 [9] was “∞”, the remaining at 5 μM ([9]; human, plasma) was > 90% and the remaining at 5 μM ([10]; Sprague-Dawley, rat, plasma) was > 90%. The “Remaining Percentages” value ([10]; 15 min) was 96.53%, the “Remaining Percentages” value ([10]; 30 min) was 95.56% and the “Remaining Percentages” value ([10]; 60 min) was 99.37%. For the same molecule, the “Remaining Percentages” value ([10]; 120 min) was 96.60%, the t1/2 [10] was “∞” and the recovery at 2 h, 1 μM ([11]; read-out: Recovery% (AP-BL)) was 68.6%. It also gave a recovery at 2 h, 1 μM ([11]; read-out: Recovery% (BL-AP)) of 90%, an efflux ratio at 2 h, 1 µM [12] of 0.9 and an efflux ratio at 2 h, 1 μM [12] of 0.92. It also gave a Papp A→B at 2 h, 1 µM [12] of 9.8 ×10⁻⁶ cm/s, a Papp A→B at 2 h, 1 μM [12] of 9.82 ×10⁻⁶ cm/s and a Papp B→A at 2 h, 1 µM [12] of 9.1 ×10⁻⁶ cm/s. For the same molecule, the Papp B→A at 2 h, 1 μM [12] was 9.06 ×10⁻⁶ cm/s, the recovery at 6 h, 5 μM ([13]; CD-1, mouse, mouse plasma) was 95.4% and the remaining at 6 h, 5 μM ([13]; CD-1, mouse, mouse plasma) was 92.9%. It also gave a fraction unbound at 6 h, 5 μM [13, 19] of 0.0702, a fraction unbound at 6 h, 5 µM [13, 20] of 0.07 and a fraction unbound at 6 h, 5 μM [13, 20] of 0.0702. The recovery at 6 h, 5 μM ([14]; rat brain homogenate) was 102%, the fraction unbound at 6 h, 5 μM [14, 21] was 0.0447 and the remaining at 6 h, 5 μM ([14]; rat brain homogenate) was 94.7%. For the same molecule, the fraction unbound at 6 h, 5 μM [14, 22] was 0.0447, the fraction unbound at 6 h, 5 µM [14, 21] was 0.045 and the “%hERG inhibition” value ([15]; 1 μM) was 17%. The IC50 [15] was 6480 nM, the remaining binding at 1 µM [18] was 94% and the Kd [16] was < 0.2 nM. For the same molecule, the IC50 [17] was 2 nM.
